Laboratory results taken from publication PMC8230474, “Synthesis of Novel Acyl Derivatives of 3-(4,5,6,7-Tetrabromo-1H-benzimidazol-1-yl)propan-1-ols—Intracellular TBBi-Based CK2 Inhibitors with Proapoptotic Properties” (International Journal of Molecular Sciences, 2021).
Read-outs that look alike come from different tables or passages of the source.

Tests used:
[1] = system: protein kinase CK2 in MCF-7 cells; assay: Intracellular inhibition of CK2, Western blot of p-Ser529 p65 and p-Ser129 Akt1, MCF-7; format: cell-based, human
Source text: We observed an inhibition of CK2 in both cell lines; however, the lower efficiency of CK2 inhibition was detected in MCF-7 considering the extent of Akt1 phosphorylation. The relative level of the phosphorylation of the tested proteins in MDA-MB-231 cells was in the range of 0.32 to 0.80 for p-Ser529 p65 and 0.41 to 0.73 for p-Ser129 Akt1, whereas in MCF-7 cells it was in the range of 0.33 to 0.78 for p-Ser529 p65 and 0.82 to 1.23 for p-Ser129 Akt1, respectively. The lowest phosphorylation levels of the tested proteins were detected in MDA-MB-231 cells for compound 6b with the relative level of 0.41 for Ser129 Akt1 as well as for compound 6c with the relative level of 0.32 for p-Ser529 p65. Among the tested proteins, the lowest extent of phosphorylation in MCF-7 cells was detected for 6b with the relative level of 0.33 for p-Ser529 p65, and for 6a with the relative level of 0.82 for Ser129 Akt1.
Considering an inefficient inhibition of CK2 in MCF-7, we evaluated an inhibition of CK2 in this cell line after 72 h. […] The relative levels were in the range of 0.17 to 0.8 for p-Ser529 p65 and 0.19 to 0.79 for p-Ser129 Akt1.
The MCF-7 cells growing exponentially were seeded at 4.8 × 10^5 cells in 6-cm-diameter plates. Subsequently, compounds were added in a final concentration of 0.5% DMSO. After incubation, floating cells were collected and cell monolayer was washed three times in ice-cold PBS and the cells were scraped, combined with floating cells and lysed in RIPA buffer consisting of 50 mM Tris-HCl (pH 7.4), 1% NP-40, 0.5% sodium deoxycholate, 0.1% SDS, 150 mM NaCl, 2 mM EDTA, 50 mM NaF, 0.2 mM sodium orthovanadate, and protease inhibitors cocktail. Subsequently, cells were sonicated (three times for 15 s), centrifuged at 20,000× g for 15 min at 4 °C, and the supernatants were collected and stored at −80 °C. The protein concentration was determined using Bradford assay. Then, supernatants were incubated with the Laemmli buffer for 5 min at 98 °C. Equal amounts of total protein (10 to 20 μg) were analyzed by SDS-PAGE, and subsequently, Western blotting was performed using primary antibodies in blocking buffer containing either 3% BSA (bovine serum albumin) or 3% milk in TBS-T (Tris-buffered saline (10 mM Tris-HCl (pH 8), 150 mM NaCl) containing 0.1% Tween 20 or 0.2% Triton X-100) for 1 h. After overnight incubation at 4 °C with the primary antibodies, the membranes were washed with TBS-T and probed with the respective secondary antibodies. The ECL substrate was used for detection and immunoblots were scanned using G Box Chemi (Syngene, Cambridge, UK) with GeneSys software (Syngene, Cambridge, UK) or were developed with the use of X-rays films. UV-irradiated Jurkat cells were used as a positive control in Western blot analysis of c-PARP1. After 2 h, one-minute UV-irradiated Jurkat leukemic T-cell line was lysed and subjected to analysis.
For densitometry, immunoblots were quantified using the Fiji distribution of the ImageJ 1.52a software (National Institutes of Health, Bethesda, MD, USA, and the University of Wisconsin, Madison, WI, USA). Phosphorylated protein densities were normalized to GAPDH densities, assuming 1 for untreated cells and then they were converted to a percent of the appropriate control.

[2] = target: human CK2 catalytic subunit (CK2α) (Homo sapiens, UniProt P68400); assay: Radiometric (P81 filter isotopic) kinase assay, CK2 catalytic subunit; format: biochemical; settings: read-out: Residual Activity of the Enzyme CK2α; for remaining activity at 5 µM: 5 µM compound; for remaining activity at 10 µM: 10 µM compound
Chain of human CK2 catalytic subunit (CK2α) (P68400 whole entry): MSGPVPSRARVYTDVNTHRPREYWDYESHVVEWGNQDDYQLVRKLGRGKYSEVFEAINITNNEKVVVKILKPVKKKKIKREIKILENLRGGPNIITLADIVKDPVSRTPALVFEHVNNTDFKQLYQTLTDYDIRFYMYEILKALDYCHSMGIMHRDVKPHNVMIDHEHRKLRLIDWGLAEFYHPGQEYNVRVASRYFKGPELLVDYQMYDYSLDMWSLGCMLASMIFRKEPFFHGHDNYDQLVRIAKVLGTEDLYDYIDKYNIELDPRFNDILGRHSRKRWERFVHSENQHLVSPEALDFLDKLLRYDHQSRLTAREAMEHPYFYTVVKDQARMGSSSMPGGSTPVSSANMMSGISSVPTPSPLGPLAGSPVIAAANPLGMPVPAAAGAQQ

MCF-7 cells = assay: MTT viability assay, MCF-7; format: cell-based; settings: Homo sapiens, read-out: EC50 ± SD MCF-7
Procedure: To test the anti-cancer effect of the TBBi derivatives, we treated the MCF-7 and MDA-MB-231 cells with the newly synthesized esters and previously reported compounds [34, 57] at the concentration range of 3.125 to 200 µM for 24 h, 48 h and 72 h. Additionally, the range of concentrations was extended by additional lower concentrations in MCF-7 for compound 4 with the minimum concentration of 0.195 µM. […] The EC50 values, describing the half maximal effective concentration of each tested compound, were calculated and are summarized in Table 2. […] We observed that the EC50 values increase in both cell lines with the elongation of fatty acids chain length in the tested compounds, thus strongly correlating with the decrease of their solubility in biological media as characterized by logS parameter (Table 2). The second reason for the decreased biological activity of the longer-chain aliphatic esters might be attributed to their greater resistance toward intracellular hydrolysis, which directly influences the slower release of the active form of the corresponding CK2 inhibitors. […] However, none of the tested compounds, except for compound 5, decreased the viability of both cell lines in a time-dependent manner (Figure 4).
MCF-7 and MDA-MB-231 were cultured in high-glucose Dulbecco’s modified Eagle medium (DMEM, Lonza, Basel, Switzerland) supplemented with 10% fetal bovine serum (FBS, EuroClone, Siziano, Italy)), 2 mM L-glutamine, and antibiotics (100 U/mL penicillin, 100 µg/mL streptomycin) (Sigma-Aldrich Chemical Company (St. Louis, MO, USA). Cells were grown in 75-cm^2 cell culture flasks (Sarstedt, Nümbrecht, Germany) in a humidified atmosphere of CO2/air (5%/95%) at 37 °C. All the experiments were performed in exponentially growing cultures. Stock solutions of the test compounds were prepared in DMSO and stored in −80 °C for a maximum of one month. For the cytotoxicity studies, stock solutions of the tested compounds were diluted 200-fold with the proper culture medium to obtain the final concentrations.
After incubation with the tested compounds, an MTT test was performed as described previously. Optical densities were measured at 570 nm using BioTek microplate reader (Winooski, VT, USA). All measurements were carried out in a minimum of three biological replicates.

[3] = MCF-7, 72 h treatment, compound at its EC50, relative to untreated control

Row | SMILES | relative level of p-Ser129 Akt1 [1, 3] | relative level of p-Ser529 p65 [1, 3] | remaining activity at 5 µM [2] [%] | remaining activity at 10 µM [2] [%] | EC50 (MCF-7 cells; MCF7, 24 h) [µM] | EC50 (MCF-7 cells; MCF7, 48 h) [µM] | EC50 (MCF-7 cells; MCF7, 72 h) [µM] | relative level of p-Ser529 p65 ([1]; MCF-7, 24 h treatment, compound at its 72-h EC50, relative to untreated control)
1 | CCCCCCCC(=O)OCCCn1cnc2c(Br)c(Br)c(Br)c(Br)c21 [Compound 3c, 3-(4,5,6,7-Tetrabromo-1H-benzimidazol-1-yl)propyl octanoate] | 0.19 | 0.17 | 86.1 ± 4.2 | 79.2 ± 7.6 | 24.3 ± 0.25 | 21.1 ± 1.23 | 29.9 ± 1.45 | 
2 | CCCCCC(=O)OCCCn1c(C)nc2c(Br)c(Br)c(Br)c(Br)c21 [Compound 6b, (4,5,6,7-Tetrabromo-2-methyl-1H-benzimidazol-1-yl)propyl hexanoate] |  |  | 76.8 ± 1.9 | 74.3 ± 0.1 | 22.4 ± 1.12 | 18.59 ± 0.18 | 18.3 ± 2.86 | 0.33
